Reference: patent publication US8013156B2 (Exelixis, Inc., priority 2003, dated 2011)

molecular target: Tie-2 (Homo sapiens, UniProt Q02763); test: Tie-2 tyrosine kinase activity assay (luciferase/luciferin ATP consumption with pEY substrate, or 33P-ATP incorporation); format: biochemical; conditions: human enzyme Tie-2
In short: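 Values are IC50 categories (A <50 nM to D ≥10,000 nM), with Ki obtainable by fitting rates to a tight-binding model. Assay formats: 33P-ATP phosphate transfer to adsorbed generic substrate counted by scintillation, or luciferase-detected ATP depletion using pEY.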

Sequence of Tie-2 (Q02763 23-1124): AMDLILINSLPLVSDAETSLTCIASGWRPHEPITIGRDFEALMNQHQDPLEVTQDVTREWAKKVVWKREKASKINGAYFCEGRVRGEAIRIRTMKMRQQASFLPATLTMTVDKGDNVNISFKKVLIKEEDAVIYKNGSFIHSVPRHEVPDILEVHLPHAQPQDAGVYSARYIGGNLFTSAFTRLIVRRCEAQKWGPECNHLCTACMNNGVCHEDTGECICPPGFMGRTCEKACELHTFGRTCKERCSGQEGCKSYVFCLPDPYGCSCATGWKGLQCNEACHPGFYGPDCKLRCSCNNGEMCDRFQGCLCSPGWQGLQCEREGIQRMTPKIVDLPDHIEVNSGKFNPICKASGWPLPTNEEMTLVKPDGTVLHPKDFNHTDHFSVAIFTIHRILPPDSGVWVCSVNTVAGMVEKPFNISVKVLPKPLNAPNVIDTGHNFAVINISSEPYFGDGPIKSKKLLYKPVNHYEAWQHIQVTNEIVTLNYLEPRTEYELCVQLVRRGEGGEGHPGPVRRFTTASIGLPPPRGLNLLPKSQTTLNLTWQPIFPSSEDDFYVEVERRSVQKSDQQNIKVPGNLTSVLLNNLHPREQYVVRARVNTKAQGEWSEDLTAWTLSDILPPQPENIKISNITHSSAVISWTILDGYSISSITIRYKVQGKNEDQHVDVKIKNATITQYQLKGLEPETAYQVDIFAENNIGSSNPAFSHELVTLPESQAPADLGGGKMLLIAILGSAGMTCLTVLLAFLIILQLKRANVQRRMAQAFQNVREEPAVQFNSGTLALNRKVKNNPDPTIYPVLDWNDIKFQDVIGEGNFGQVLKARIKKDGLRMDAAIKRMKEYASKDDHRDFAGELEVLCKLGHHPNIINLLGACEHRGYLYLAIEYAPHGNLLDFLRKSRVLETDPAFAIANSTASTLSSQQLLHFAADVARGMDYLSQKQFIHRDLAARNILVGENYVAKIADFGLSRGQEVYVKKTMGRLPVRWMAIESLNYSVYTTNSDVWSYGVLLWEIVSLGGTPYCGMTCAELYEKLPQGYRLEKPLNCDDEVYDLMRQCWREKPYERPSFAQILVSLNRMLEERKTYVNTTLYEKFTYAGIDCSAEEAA

Compared with `CCCCNc1cc(COc2nsnc2N2CCNCC2)ccn1` [Example 111, N-butyl-4-{[(4-piperazin-1-yl-1,2,5-thiadiazol-3-yl)oxy]methyl}pyridin-2-amine], `CCCCNc1cc(COc2nsnc2N2CCN(C(=O)Nc3cc(C(F)(F)F)cc(C(F)(F)F)c3)CC2)ccn1` [Example 114, N-[3,5-bis(trifluoromethyl)phenyl]-4-[4-({[2-(butylamino)pyridin-4-yl]methyl}oxy)-1,2,5-thiadiazol-3-yl]piperazine-1-carboxamide] is lower in IC50: no less than 10000 nM for the first, 50 to 1000 nM for the second.

`CNc1cc(COc2nsnc2N2CCN(C(=O)Nc3cc(C(F)(F)F)cc(C(F)(F)F)c3)CC2)ccn1` [Example 112, N-[3,5-bis(trifluoromethyl)phenyl]-4-[4-({[2-(methylamino)pyridin-4-yl]methyl}oxy)-1,2,5-thiadiazol-3-yl]piperazine-1-carboxamide] and `CCNc1cc(COc2nsnc2N2CCN(C(=O)Nc3cc(C(F)(F)F)cc(C(F)(F)F)c3)CC2)ccn1` [Example 113, N-[3,5-bis(trifluoromethyl)phenyl]-4-[4-({[2-(ethylamino)pyridin-4-yl]methyl}oxy)-1,2,5-thiadiazol-3-yl]piperazine-1-carboxamide] cannot be ordered by IC50: less than 50 nM for the first, less than 50 nM for the second.

First: O=C(Nc1cc(C(F)(F)F)cc(C(F)(F)F)c1)N1CCN(c2nsnc2OCc2ccnc(NCc3ccccc3)c2)CC1 [Example 115, N-[3,5-bis(trifluoromethyl)phenyl]-4-{4-[({2-[(phenylmethyl)amino]pyridin-4-yl}methyl)oxy]-1,2,5-thiadiazol-3-yl}piperazine-1-carboxamide]
Second: O=C(Nc1cc(COc2nsnc2N2CCN(C(=O)Nc3cc(C(F)(F)F)cc(C(F)(F)F)c3)CC2)ccn1)c1ccccc1 [Example 125, N-[3,5-bis(trifluoromethyl)phenyl]-4-{4-[({2-[(phenylcarbonyl)amino]pyridin-4-yl}methyl)oxy]-1,2,5-thiadiazol-3-yl}piperazine-1-carboxamide]
The IC50 of the first is lower: 50 to 1000 nM for the first, 1000 to 10000 nM for the second.

First: CC(C)Nc1nccc(COc2nsnc2N2CCN(C(=O)Nc3cc(C(F)(F)F)cc(C(F)(F)F)c3)CC2)n1 [Example 116, N-[3,5-bis(trifluoromethyl)phenyl]-4-{4-[({2-[(1-methylethyl)amino]pyrimidin-4-yl}methyl)oxy]-1,2,5-thiadiazol-3-yl}piperazine-1-carboxamide]
Second: CCNc1nccc(COc2nsnc2N2CCN(C(=O)Nc3cc(C(F)(F)F)cc(C(F)(F)F)c3)CC2)n1 [Example 121, N-[3,5-bis(trifluoromethyl)phenyl]-4-[4-({[2-(ethylamino)pyrimidin-4-yl]methyl}oxy)-1,2,5-thiadiazol-3-yl]piperazine-1-carboxamide]
The IC50 of the first is higher: 50 to 1000 nM for the first, less than 50 nM for the second.

Compared with `O=C(Nc1cc(C(F)(F)F)cc(C(F)(F)F)c1)N1CCN(c2nsnc2OCc2ccnc(NCc3ccccc3)n2)CC1` [Example 117, N-[3,5-bis(trifluoromethyl)phenyl]-4-{4-[({2-[(phenylmethyl)amino]pyrimidin-4-yl}methyl)oxy]-1,2,5-thiadiazol-3-yl}piperazine-1-carboxamide], `O=C(Nc1cc(C(F)(F)F)cc(C(F)(F)F)c1)N1CCN(c2nsnc2OCc2ccnc(Nc3ccccc3)n2)CC1` [Example 118, N-[3,5-bis(trifluoromethyl)phenyl]-4-[4-({[2-(phenylamino)pyrimidin-4-yl]methyl}oxy)-1,2,5-thiadiazol-3-yl]piperazine-1-carboxamide] is lower in IC50: 50 to 1000 nM for the first, less than 50 nM for the second. The second is the more potent here.

`CN(C)CCNc1nccc(COc2nsnc2N2CCN(C(=O)Nc3cc(C(F)(F)F)cc(C(F)(F)F)c3)CC2)n1` [Example 119, N-[3,5-bis(trifluoromethyl)phenyl]-4-(4-{[(2-{[2-(dimethylamino)ethyl]amino}pyrimidin-4-yl)methyl]oxy}-1,2,5-thiadiazol-3-yl)piperazine-1-carboxamide] and `CCCNc1nccc(COc2nsnc2N2CCN(C(=O)Nc3cc(C(F)(F)F)cc(C(F)(F)F)c3)CC2)n1` [Example 122, N-[3,5-bis(trifluoromethyl)phenyl]-4-[4-({[2-(propylamino)pyrimidin-4-yl]methyl}oxy)-1,2,5-thiadiazol-3-yl]piperazine-1-carboxamide] fall in the same range of IC50: 50 to 1000 nM for the first, 50 to 1000 nM for the second.

Compared with `CN(C)CCNc1cc(COc2nsnc2N2CCN(C(=O)Nc3cc(C(F)(F)F)cc(C(F)(F)F)c3)CC2)ccn1` [Example 120, N-[3,5-bis(trifluoromethyl)phenyl]-4-(4-{[(2-{[2-(dimethylamino)ethyl]amino}pyridin-4-yl)methyl]oxy}-1,2,5-thiadiazol-3-yl)piperazine-1-carboxamide], `CC(=O)Nc1cc(COc2nsnc2N2CCN(C(=O)Nc3cc(C(F)(F)F)cc(C(F)(F)F)c3)CC2)ccn1` [Example 129, 4-[4-({[2-(acetylamino)pyridin-4-yl]methyl}oxy)-1,2,5-thiadiazol-3-yl]-N-[3,5-bis(trifluoromethyl)phenyl]piperazine-1-carboxamide] is lower in IC50: 50 to 1000 nM for the first, less than 50 nM for the second.

First: O=C(Nc1cc(C(F)(F)F)cc(C(F)(F)F)c1)N1CCN(c2nsnc2OCc2ccnc(NC3CC3)n2)CC1 [Example 123, N-[3,5-bis(trifluoromethyl)phenyl]-4-[4-({[2-(cyclopropylamino)pyrimidin-4-yl]methyl}oxy)-1,2,5-thiadiazol-3-yl]piperazine-1-carboxamide]
Second: O=C(Nc1cc(C(F)(F)F)cc(C(F)(F)F)c1)N1CCN(c2nsnc2OCc2ccnc(NC3CCCC3)n2)CC1 [Example 128, N-[3,5-bis(trifluoromethyl)phenyl]-4-[4-({[2-(cyclopentylamino)pyrimidin-4-yl]methyl}oxy)-1,2,5-thiadiazol-3-yl]piperazine-1-carboxamide]
The IC50 of the first is lower: less than 50 nM for the first, 50 to 1000 nM for the second.

`CC(=O)Nc1nccc(COc2nsnc2N2CCN(C(=O)Nc3cc(C(F)(F)F)cc(C(F)(F)F)c3)CC2)n1` [Example 124, 4-[4-({[2-(acetylamino)pyrimidin-4-yl]methyl}oxy)-1,2,5-thiadiazol-3-yl]-N-[3,5-bis(trifluoromethyl)phenyl]piperazine-1-carboxamide] and `COC(=O)Nc1nccc(COc2nsnc2N2CCN(C(=O)Nc3cc(C(F)(F)F)cc(C(F)(F)F)c3)CC2)n1` [Example 131, methyl {4-[({4-[4-({[3,5-bis(trifluoromethyl)phenyl]amino}carbonyl)piperazin-1-yl]-1,2,5-thiadiazol-3-yl}oxy)methyl]pyrimidin-2-yl}carbamate] cannot be ordered by IC50: less than 50 nM for the first, less than 50 nM for the second.

`O=C(Nc1nccc(COc2nsnc2N2CCN(C(=O)Nc3cc(C(F)(F)F)cc(C(F)(F)F)c3)CC2)n1)c1ccccc1` [Example 126, N-[3,5-bis(trifluoromethyl)phenyl]-4-{4-[({2-[(phenylcarbonyl)amino]pyrimidin-4-yl}methyl)oxy]-1,2,5-thiadiazol-3-yl}piperazine-1-carboxamide] and `NC(=O)c1nccc(COc2nsnc2N2CCN(C(=O)Nc3cc(C(F)(F)F)cc(C(F)(F)F)c3)CC2)n1` [Example 136, 4-[({4-[4-({[3,5-bis(trifluoromethyl)phenyl]amino}carbonyl)piperazin-1-yl]-1,2,5-thiadiazol-3-yl}oxy)methyl]pyrimidine-2-carboxamide] fall in the same range of IC50: 50 to 1000 nM for the first, 50 to 1000 nM for the second.

`O=C(Nc1cc(C(F)(F)F)cc(C(F)(F)F)c1)Nc1cc(COc2nsnc2N2CCN(C(=O)Nc3cc(C(F)(F)F)cc(C(F)(F)F)c3)CC2)ccn1` [Example 130, N-[3,5-bis(trifluoromethyl)phenyl]-4-{4-[({2-[({[3,5-bis(trifluoromethyl)phenyl]amino}carbonyl)amino]pyridin-4-yl}methyl)oxy]-1,2,5-thiadiazol-3-yl}piperazine-1-carboxamide] and `O=C(O)c1cc(COc2nsnc2N2CCN(C(=O)Nc3cc(C(F)(F)F)cc(C(F)(F)F)c3)CC2)ccn1` [Example 139, 4-[({4-[4-({[3,5-bis(trifluoromethyl)phenyl]amino}carbonyl)piperazin-1-yl]-1,2,5-thiadiazol-3-yl}oxy)methyl]pyridine-2-carboxylic acid] cannot be ordered by IC50: 1000 to 10000 nM for the first, no less than 10000 nM for the second.

`CCc1cccc(NC(=O)N2CCN(c3nsnc3OCc3ccnc(NC(=O)OC)c3)CC2)c1` [Example 133, methyl [4-({[4-(4-{[(3-ethylphenyl)amino]carbonyl}piperazin-1-yl)-1,2,5-thiadiazol-3-yl]oxy}methyl)pyridin-2-yl]carbamate] and `O=C(Nc1cc(COc2nsnc2N2CCN(C(=O)Nc3cc(C(F)(F)F)cc(C(F)(F)F)c3)CC2)ccn1)OCCN1CCCC1` [Example 140, 2-pyrrolidin-1-ylethyl {4-[({4-[4-({[3,5-bis(trifluoromethyl)phenyl]amino}carbonyl)piperazin-1-yl]-1,2,5-thiadiazol-3-yl}oxy)methyl]pyridin-2-yl}carbamate] cannot be ordered by IC50: less than 50 nM for the first, less than 50 nM for the second.

First: N#Cc1nccc(COc2nsnc2N2CCN(C(=O)Nc3cc(C(F)(F)F)cc(C(F)(F)F)c3)CC2)n1 [Example 134, N-[3,5-bis(trifluoromethyl)phenyl]-4-(4-{[(2-cyanopyrimidin-4-yl)methyl]oxy}-1,2,5-thiadiazol-3-yl)piperazine-1-carboxamide]
Second: O=C(Nc1cc(C(F)(F)F)cc(C(F)(F)F)c1)N1CCN(c2nsnc2OCc2ccncn2)CC1 [Example 138, N-[3,5-bis(trifluoromethyl)phenyl]-4-{4-[(pyrimidin-4-ylmethyl)oxy]-1,2,5-thiadiazol-3-yl}piperazine-1-carboxamide]
The IC50 of the first is higher: no less than 10000 nM for the first, 50 to 1000 nM for the second.

Going from `Nc1nccc(COc2nccnc2N2CCN(C(=O)Nc3cc(C(F)(F)F)cc(C(F)(F)F)c3)CC2)n1` [Example 135, 4-(3-{[(2-aminopyrimidin-4-yl)methyl]oxy}pyrazin-2-yl)-N-[3,5-bis(trifluoromethyl)phenyl]piperazine-1-carboxamide] to `CCCCOc1nccc(COc2nsnc2N2CCN(C(=O)Nc3cc(C(F)(F)F)cc(C(F)(F)F)c3)CC2)n1` [Example 137, N-[3,5-bis(trifluoromethyl)phenyl]-4-[4-({[2-(butyloxy)pyrimidin-4-yl]methyl}oxy)-1,2,5-thiadiazol-3-yl]piperazine-1-carboxamide], the IC50 rises from less than 50 nM to no less than 10000 nM. The first is the more potent here.
